Measurements from patent US11400072B2, “Methods for the treatment of nonalcoholic fatty liver disease and/or lipodystrophy” (Coherus Biosciences, Inc., priority 2015, dated 2022).

Tested on: obese patients with NASH
Test: 48 week double blind, placebo controlled, randomized, parallel group study of INT131 on hepatic histology of obese patients with NASH
Format: in vivo, human
Settings: subjects receiving either 1.25 or 2 mg of INT131 once per day
Text: A 48 week double blind, placebo controlled, randomized, parallel group study will be conducted to evaluate the effect of INT131 on hepatic histology of obese patients with NASH. Specifically, at least 225 subjects are chosen that fit the following criteria: (1) age 18 to 75 years old; (2) body mass index (BMI) greater than 25 kg/m^2 and less than 40 kg/m^2; (3) NAFLD fibrosis score greater than or equal to 1.0 and less than 4.0; (4) average daily alcohol consumption of 10 g/day or less; (5) NAFLD activity score (“NAS”) of 3 or greater; (6) histologically proven steatohepatitis on a diagnostic liver biopsy performed within 6 months of randomization, confirmed central laboratory reading of slides (steatosis >5% lobular inflammation, any amount of ballooning); (7) women who meet the following criteria: women of childbearing potential with a negative urine pregnancy test at Screening who agree to use 1 or more approved methods of birth control during the study. Approved methods of birth control are: hormonal contraception, intrauterine device, diaphragm plus spermicide, female condom plus spermicide. […]

[1] = week 0 compared to week 48, statistically significant versus placebo group

O=S(=O)(Nc1cc(Cl)c(Oc2cnc3ccccc3c2)c(Cl)c1)c1ccc(Cl)cc1Cl [INT131, 2,4-Dichloro-N-[3,5-dichloro-4-(3-quinolinyloxy)phenyl]benzenesulfonamide]
liver function test(s): improvement | most if not all other metabolic parameters outlined above: improvement | NAS (NAFLD activity score) [1]: reduction | ballooning grade [1]: reduction | fibrosis stage [1]: reduction | portal and lobular inflammation grade [1]: reduction | steatosis grade [1]: reduction
